Data taken from patent US11993590B2, “Pyranone compounds useful to modulate OMA1 protease” (712 North Inc., priority 2016, dated 2024).
“And” between values parts separate entries of the source, which are not always exact repeats. Identical values can stand only once. “Also recorded” adds a separate entry of the source. Like-named read-outs stand apart in the source and are kept apart here.

Legend:
[1] = tested on: OMA1; assay: OPA1-Western blot of Hek293T cells incubated with tipranavir, OMA1 activated with CCCP or sorafenib; assay type: cell-based, human
Method: FIG. 28. […] OMA1 was activated with 3 μM CCCP for 30 minutes.
FIG. 29. Tipranavir can activate OMA1 at concentrations above 20 μM. […] OMA1 was then activated with 4 μM CCCP for 30 minutes in the indicated samples.
FIG. 30. […] OMA1 was then activated with either 3 μM CCCP or 30 μM sorafenib (SFB) for 30 minutes in the indicated samples.
Experimentally, OMA1 can be activated in cellular assays by the mitochondrial uncoupler [(3-chlorophenyl)hydrazono]propanedinitrile (CCCP).
Example 9. Tipranavir can activate OMA1 at concentrations above 20 μM. To further determine tipranavir's effect on OPA1, I incubated Hek293T cells for an hour with low doses of 0 μM, 20 μM and 40 μM tipranavir (FIG. 29).
Example 10. 100 μM tipranavir can inhibit OPA1 cleavage upon CCCP-treatment and upon sorafenib treatment. […] To investigate whether 100 μM tipranavir can inhibit CCCP-induced OPA1-cleavage or OPA1-cleavage induced by other agents as well, I incubated Hek293T cells for an hour with low doses of 0 μM, 50 μM or 100 μM tipranavir before activating OMA1 with either 3 μM CCCP or 30 μM sorafenib (see FIG. 30).

[2] = tested on: OMA1; assay: OMA1 antagonist test: CCCP-induced OPA1 cleavage in HEK293T cells, OPA1 Western blot; assay type: cell-based, human; conditions: for proteolytic cleavage of large OPA1 isoforms upon CCCP: 2 hours before 10 μM CCCP for 30 min
Method: HEK293T cells were cultured and maintained in Dulbecco's Modified Eagle's Medium supplemented with 10% fetal bovine serum (FBS) and 2 mM […] in a 95% air-5% CO2 humidified atmosphere at 37° C. To test potential OMA1 antagonists, cells were seeded in 24-well plates and incubated over night to achieve around 90% confluency. For experiments the culture medium was replaced with Minimal Essential Medium and cells were pre-incubated with variable concentrations of the different test-compounds for 2 hours in a 95% air-5% CO2 humidified atmosphere at 37° C. After 2 hours, OMA1 protease was activated through the addition of carbonyl cyanide m-chlorophenyl hydrazone (CCCP; 10 μM final concentration) for 30 min in the presence of different concentrations of compounds to be tested. After 30 minutes, cells were immediately placed on ice, the medium removed, and cells harvested through addition of 100 μl RIPA buffer supplemented with protease inhibitor cocktail. Samples were separated on 8% tris-glycine gels and transferred onto nitro-cellulose membranes by Wester blotting. Membranes were immunolabeled with anti-OPA1 Antibodies (1:1,000) and with goat-anti-mouse Alkaline Phosphatase conjugated secondary antibodies (1:5,000). OPA1 protein was visualized with NBT/BCIP between 5 and 15 minutes before the reaction was stopped with an excess of distilled water.
CCCP is a potent mitochondrial oxidative phosphorylation uncoupler that activates OMA1 and creates conditions that allow OPA1 cleavage to occur.

[3] = tested on: OMA1; assay: OMA1 gene expression microarray in KMH2 cells; assay type: cell-based, human; conditions: 20 mM glucosamine, 24 hours
Method: Human malignant lymphocytes (KMH2 cells) were cultured without or with 20 mM glucosamine (Carvalho et al. 2014). After 24 hours mRNA was isolated and analyzed by gene expression microarrays. Controls expressed OMA1 at 7.31 (±0.08 S.D.) and glucosamine treated cells expressed OMA1 at 6.69 (±0.06 S.D.). Glucosamine is a dietary supplement and its effects on mitochondria are known to a person skilled in the arts (Carvalho et al. 2014; Bond and Hanover 2015; Tan et al. 2017). […] In context of the present invention glucosamine thus represents an antagonist of OMA1 and/or an oligomeric complex comprising OMA1 as defined above. Accordingly, glucosamine represents a medical intervention in particular for the treatment, prevention and/or amelioration of a disorder or disease correlated with mitochondrial stress or dysfunction, a mitochondrial disorder or disease, or a disorder or disease characterized by OPA1 alterations.
Referring to FIG. 21, the dietary supplement glucosamine (CAS #3416-24-8) represents an antagonist of OMA1. […] KMH2 cells were cultured for 24 hours without or with 20 mM glucosamine, after which mRNA was isolated and analyzed by gene expression microarrays. Controls expressed OMA1 at 7.31 (±0.08 S.D.) and glucosamine treated cells expressed OMA1 at 6.69 (±0.06 S.D.).

[4] = tested on: OMA1; conditions: KMH2 cells, 20 mM glucosamine, 24 hours; cited from earlier work
[5] = tested on: OMA1; assay: OMA1 agonist test: CCCP threshold of OMA1 activation/OPA1 cleavage in HEK293T cells; assay type: cell-based, human
[6] = tested on: OMA1; conditions: RS4.11 cells, 10 μM SB216763, 20 hours; cited from earlier work
[7] = tested on: OMA1; assay: OMA1 gene expression microarray in RS4.11 MLL leukemia cells; assay type: cell-based, human; conditions: RS4.11 cells, 10 μM SB216763, 20 hours
Method: Human MLL leukemia RS4.11 cells were cultured without or with 10 μM SB216763 for 20 hours (Wang et al. 2010). […] SB216763 is a kinase inhibitor and the finding that SB216763 can increase OMA1 levels was unexpected and is non-obvious to a person skilled in the arts. In context of the present invention SB216763 thus represents an agonist of OMA1 and/or an oligomeric complex comprising OMA1 as defined above. Accordingly, SB216763 represents a medical intervention in particular for the treatment, prevention and/or amelioration of a disorder or disease correlated with mitochondrial stress or dysfunction, a mitochondrial disorder or disease, or a disorder or disease characterized by OPA1 alterations.
Referring to FIG. 23, the GSK-3 inhibitor SB216763 (CAS #280744-09-4) represents an agonist of OMA1. […] RS4.11 cells were cultured for 20 hours without or with 10 μM SB216763, after which mRNA was isolated and analyzed by gene expression microarrays. Controls expressed OMA1 at 8.10 (±0.01 S.D.) and SB216763 treated cells expressed OMA1 at 8.7 (±0.18 S.D.).

[8] = tested on: OMA1; conditions: 1% Isoflurane, 90 minutes twice daily, cited from earlier work
[9] = tested on: OMA1; assay: OMA1 gene expression micro-arrays in rat brain; assay type: in vivo; conditions: 10 exposures
Method: Rats were exposed to 1% Isoflurane for 90 minutes twice daily for a total of 5 or 10 exposures, after which animals were sacrificed and brain samples analyzed by gene expression micro-arrays (Pan et al. 2006).

[10] = tested on: OPA1; conditions: cells cultured with the compound; cited from earlier work

In the case of `CCC[C@@]1(CCc2ccccc2)CC(O)=C([C@H](CC)c2cccc(NS(=O)(=O)c3ccc(C(F)(F)F)cn3)c2)C(=O)O1` [tipranavir], the “concentration at which tipranavir can activate OMA1” value ([1]; Hek293T cells, 1 hour) is reported as “above 20 μM”.
In the case of `CNC(=O)c1cc(Oc2ccc(NC(=O)Nc3ccc(Cl)c(C(F)(F)F)c3)cc2)ccn1` [sorafenib], the “OMA1 activation / OPA1 cleavage by sorafenib alone” value ([1]; 30 μM sorafenib, 30 minutes) is reported as “activate OMA1 and lead to OPA1 cleavage similar to CCCP”.
With `O=C(O)CNC(=O)C(CS)Cc1ccccc1` (stereo not shown) [Thiorphan] the “proteolytic cleavage of large OPA1 isoforms upon CCCP” value (“proteolytic cleavage” for short) ([2]; 100 μM) was “all OPA1 isoforms including the two large OPA1-L1 and OPA1-L2 isoforms were readily detectable; also recorded: The large OPA1-L1 and OPA1-L2 isoforms were still readily detectable”.
For `N[C@H]1C(O)O[C@H](CO)[C@@H](O)[C@@H]1O` (stereo partly shown) [glucosamine], the “decrease of OMA1 gene expression levels” value [3] is given as 8.5% and the OMA1 expression level [4] is given as 6.69 (±0.06 S.D.).
For `N#CC(C#N)=NNc1cccc(Cl)c1` [CCCP, carbonyl cyanide m-chlorophenyl hydrazone], the “OPA1 processing by CCCP alone” value ([5]; 0 μM, 3 μM and 5 μM CCCP, untreated (vehicle-only) cells) was “had no effect on OPA1 processing in untreated cells”, the “OPA1 cleavage / OMA1 activation by CCCP alone” value ([5]; 7 μM CCCP, untreated (vehicle-only) cells) was “OPA1 was cleaved only at the highest concentration of 7 μM CCCP; also recorded: OMA1 was activated at the highest concentration of 7 μM CCCP” and the “L-OPA1 hydrolysis by CCCP alone” value ([1]; 3 μM CCCP, 30 minutes) was “all L-OPA1 isoforms are hydrolyzed upon CCCP treatment”. The “OMA1 activation / OPA1 cleavage by CCCP alone” value ([2]; 10 μM CCCP, 30 minutes) was “resulted in cleavage of both large OPA1-L1 and OPA1-L2 isoforms; also recorded: could activate OMA1, which resulted in the cleavage of the OPA1-L1 and OPA1-L2 isoforms”.
For `Cn1cc(C2=C(c3ccc(Cl)cc3Cl)C(=O)NC2=O)c2ccccc21` [SB216763], the OMA1 expression level [6] is listed as 8.7 (±0.18 S.D.) and the “increase of OMA1 gene expression levels” value [7] is listed as 7.6%.
For `FC(F)OC(Cl)C(F)(F)F` (stereo not shown) [Isoflurane], the “OMA1 expression level in rat brain” value ([8]; 5 exposures) is listed as 19.1 (±3.4 S.D.), the “OMA1 expression level in rat brain” value ([8]; 10 exposures) is listed as 29.3 (±6.3 S.D.) and the “increase of OMA1 gene expression in rat brain” value [9] is listed as 180% and 280%.
In the case of `c1cnc2c(c1)ccc1cccnc12` [phenanthroline], the “OPA1 levels and OPA1L/OPA1S isoforms” value [10] is listed as “an increase in the OPA1L isoform” and the “proteolytic cleavage” value ([2]; 500 μM) is listed as “The large OPA1-L1 and OPA1-L2 isoforms were still readily detectable; also recorded: inhibited proteolytic cleavage of OPA1 by OMA1”.
With `CC(C)ON(CC(=O)NO)S(=O)(=O)c1ccc(-c2ccccc2)cc1` [ARP100] the “proteolytic cleavage” value ([2]; 70 μM) was “all OPA1 isoforms including the large OPA1-L1 and OPA1-L2 isoforms were readily detectable; also recorded: The large OPA1-L1 and OPA1-L2 isoforms were still readily detectable”.
For `O=S(=O)(CC1CS1)c1ccc(Oc2ccccc2)cc1` (stereo not shown) [SB-3CT], the “OPA1 cleavage without CCCP” value ([5]; 100 μM SB-3CT, 0 μM CCCP) was “did not show OPA1 alterations; also recorded: did not induce OPA1 cleavage without CCCP” and the “OPA1 cleavage / OMA1 activation at low CCCP” value ([5]; 100 μM SB-3CT, 3 μM and 5 μM CCCP for 20 minutes) was “caused OPA1 cleavage to occur already at 3 μM and 5 μM CCCP; also recorded: OMA1 was already activated at lower concentrations of 3 μM and 5 μM CCCP”.
